In brackets after ≈: the same amount, converted by molar mass. Where two headings read alike, the source gives them in different places. Bounds are passed on as bounds.

Assay [1] concerns Staphylococcus aureus, MRSA (ATCC 33591). Briefly: Antibacterial MIC assay (microbroth dilution, CLSI). The format is cell-based. Conditions: read-out: MIC Staphylococcus aureus, MRSA (ATCC 33591). An excerpt: (§1) All MIC testing of bacteria followed the Clinical and Laboratory Standards Institute (CLSI) guidelines for antimicrobial testing of aerobic bacteria (Methods for Dilution Antimicrobial Susceptibility Tests for Bacteria that Grow Aerobically; Approved Standard—Tenth Edition, M07-A10; Performance Standards for Antimicrobial Susceptibility Testing; Twenty-fifth Informational Supplement, M100-S25).
(§2) Briefly, the microbroth dilution MIC method was used to quantitatively measure the in vitro antibacterial activity of a compound against a given bacterial isolate. The following bacterial strains were evaluated: Staphylococcus aureus, MRSA (ATCC 33591) and Streptococcus pneumoniae (ATCC 49619). Bacteria were grown in cation-adjusted Mueller-Hinton broth, with additions as required per species growth requirements (e.g. 3% lysed horse blood for fastidious organisms such as S. pneumoniae). A direct colony suspension in saline was prepared from colonies on an overnight agar plate to achieve a turbidity equivalent to 0.5 McFarland standard, which was subsequently diluted into the assay plate to achieve 5×10^5 CFU/mL. Assays plates were prepared by 2-fold dilution of compound across the plate and included a positive growth control.

The test system of assay [2] is Streptococcus pneumoniae (ATCC 49619). The description is as above. The format is cell-based.
From the text: as §1
as §2, with “The following bacterial strains were evaluated: Staphylococcus aureus, MRSA (ATCC 33591) and Streptococcus pneumoniae (ATCC 49619).” left out

The mark [3] stands for this setting: ATCC49619, read-out: MIC Streptococcus pneumoniae (ATCC 49619).
Where [4] appears, read: microbroth dilution, cation-adjusted Mueller-Hinton broth, 35° C. for 16-20 hours.
Setting [5] is: ATCC49619, microbroth dilution, 3% lysed horse blood, 35° C. for 16-20 hours, read-out: MIC Streptococcus pneumoniae (ATCC 49619).

Regarding `C=C[C@]1(C)C[C@@H](OC(=O)COc2ccc3c(c2)B(O)OC3)[C@]2(C)[C@H](C)CC[C@]3(CCC(=O)[C@H]32)[C@@H](C)[C@@H]1O` [Compound 1, (3aR,4R,5R,7S,8S,9R,9aS,12R)-8-hydroxy-4,7,9,12-tetramethyl-3-oxo-7-vinyldecahydro-4,9a-propanocyclopenta[8]annulen-5-yl 2-((1-hydroxy-1,3-dihydrobenzo[c][1,2]oxaborol-6-yl)oxy)acetate], the MIC in assay [1] and in assay [2] (setting [3]) was less than 0.25 mg/L each time.
As for `C=C[C@]1(C)C[C@@H](OC(=O)COc2ccc3c(c2F)B(O)OC3)[C@]2(C)[C@H](C)CC[C@]3(CCC(=O)[C@H]32)[C@@H](C)[C@@H]1O` [Compound 2, (3aR,4R,5R,7S,8S,9R,9aS,12R)-8-hydroxy-4,7,9,12-tetramethyl-3-oxo-7-vinyldecahydro-4,9a-propanocyclopenta[8]annulen-5-yl 2-((7-fluoro-1-hydroxy-1,3-dihydrobenzo[c][1,2]oxaborol-6-yl)oxy)acetate], the minimal inhibitory concentration (MIC) is less than 0.25 mg/L in assay [1] and 0.5 to 2 mg/L (≈ 0.946 to 3.78 µM) in assay [2] (setting [3]).
Regarding `C=C[C@]1(C)C[C@@H](OC(=O)COc2cc3c(cc2F)COB3O)[C@]2(C)[C@H](C)CC[C@]3(CCC(=O)[C@H]32)[C@@H](C)[C@@H]1O` [Compound 3, (3aR,4R,5R,7S,8S,9R,9aS,12R)-8-hydroxy-4,7,9,12-tetramethyl-3-oxo-7-vinyldecahydro-4,9a-propanocyclopenta[8]annulen-5-yl 2-((5-fluoro-1-hydroxy-1,3-dihydrobenzo[c][1,2]oxaborol-6-yl)oxy)acetate], the minimum inhibitory concentration (MIC) in assay [1] and in assay [2] (setting [3]) was less than 0.25 mg/L in each case.
`C=C[C@]1(C)C[C@@H](OC(=O)COc2cc(F)c3c(c2)B(O)OC3)[C@]2(C)[C@H](C)CC[C@]3(CCC(=O)[C@H]32)[C@@H](C)[C@@H]1O` [Compound 4, (3aR,4R,5R,7S,8S,9R,9aS,12R)-8-hydroxy-4,7,9,12-tetramethyl-3-oxo-7-vinyldecahydro-4,9a-propanocyclopenta[8]annulen-5-yl 2-((4-fluoro-1-hydroxy-1,3-dihydrobenzo[c][1,2]oxaborol-6-yl)oxy)acetate]: the MIC is less than 0.25 mg/L in assay [1] and 0.5 to 2 mg/L (≈ 0.946 to 3.78 µM) in assay [2] (setting [3]).
The like results for `C=C[C@]1(C)C[C@@H](OC(=O)COc2c(F)cc3c(c2F)B(O)OC3)[C@]2(C)[C@H](C)CC[C@]3(CCC(=O)[C@H]32)[C@@H](C)[C@@H]1O` [Compound 5, (3aR,4R,5R,7S,8S,9R,9aS,12R)-8-hydroxy-4,7,9,12-tetramethyl-3-oxo-7-vinyldecahydro-4,9a-propanocyclopenta[8]annulen-5-yl 2-((5,7-difluoro-1-hydroxy-1,3-dihydrobenzo[c][1,2]oxaborol-6-yl)oxy)acetate] were, in that order, less than 0.25 mg/L and less than 0.25 mg/L.
Turning to `C=C[C@]1(C)C[C@@H](OC(=O)COc2ccc3c(c2Cl)B(O)OC3)[C@]2(C)[C@H](C)CC[C@]3(CCC(=O)[C@H]32)[C@@H](C)[C@@H]1O` [Compound 6, (3aR,4R,5R,7S,8S,9R,9aS,12R)-8-hydroxy-4,7,9,12-tetramethyl-3-oxo-7-vinyldecahydro-4,9a-propanocyclopenta[8]annulen-5-yl 2-((7-chloro-1-hydroxy-1,3-dihydrobenzo[c][1,2]oxaborol-6-yl)oxy)acetate], the MIC was less than 0.25 mg/L in assay [1] and 0.5 to 2 mg/L (≈ 0.918 to 3.67 µM) in assay [2] (setting [3]).
The like results for `C=C[C@]1(C)C[C@@H](OC(=O)COc2cc(CN)c3c(c2Cl)B(O)OC3)[C@]2(C)[C@H](C)CC[C@]3(CCC(=O)[C@H]32)[C@@H](C)[C@@H]1O` [Compound 8, (3aR,4R,5R,7S,8S,9R,9aS,12R)-8-hydroxy-4,7,9,12-tetramethyl-3-oxo-7-vinyldecahydro-4,9a-propanocyclopenta[8]annulen-5-yl 2-((4-(aminomethyl)-7-chloro-1-hydroxy-1,3-dihydrobenzo[c][1,2]oxaborol-6-yl)oxy)acetate] were, in that order, less than 0.25 mg/L and 0.5 to 2 mg/L (≈ 0.871 to 3.48 µM).
The like results for `C=C[C@]1(C)C[C@@H](OC(=O)COc2ccc3c(c2C)B(O)OC3)[C@]2(C)[C@H](C)CC[C@]3(CCC(=O)[C@H]32)[C@@H](C)[C@@H]1O` [Compound 9, (3aR,4R,5R,7S,8S,9R,9aS,12R)-8-hydroxy-4,7,9,12-tetramethyl-3-oxo-7-vinyldecahydro-4,9a-propanocyclopenta[8]annulen-5-yl2-((1-hydroxy-7-methyl-1,3-dihydrobenzo[c][1,2]oxaborol-6-yl)oxy)acetate] were, in that order, less than 0.25 mg/L and 0.5 to 2 mg/L (≈ 0.953 to 3.81 µM).
With `C=C[C@]1(C)C[C@@H](OC(=O)COc2cc3c(cc2C)COB3O)[C@]2(C)[C@H](C)CC[C@]3(CCC(=O)[C@H]32)[C@@H](C)[C@@H]1O` [Compound 10, (3aR,4R,5R,7S,8S,9R,9aS,12R)-8-hydroxy-4,7,9,12-tetramethyl-3-oxo-7-vinyldecahydro-4,9a-propanocyclopenta[8]annulen-5-yl 2-((1-hydroxy-5-methyl-1,3-dihydrobenzo[c][1,2]oxaborol-6-yl)oxy)acetate], the minimal inhibitory concentration (MIC) in assay [1] (setting [4]) and in assay [2] (setting [5]) was less than 0.25 mg/L each time.
For `C=C[C@]1(C)C[C@@H](OC(=O)COc2cc(C)c3c(c2)B(O)OC3)[C@]2(C)[C@H](C)CC[C@]3(CCC(=O)[C@H]32)[C@@H](C)[C@@H]1O` [Compound 11, (3aR,4R,5R,7S,8S,9R,9aS,12R)-8-hydroxy-4,7,9,12-tetramethyl-3-oxo-7-vinyldecahydro-4,9a-propanocyclopenta[8]annulen-5-yl 2-((1-hydroxy-4-methyl-1,3-dihydrobenzo[c][1,2]oxaborol-6-yl)oxy)acetate], the minimal inhibitory concentration (MIC) in assay [1] and in assay [2] (setting [3]) was less than 0.25 mg/L each time.
For `C=C[C@]1(C)C[C@@H](OC(=O)COc2cc(CN)c3c(c2)B(O)OC3)[C@]2(C)[C@H](C)CC[C@]3(CCC(=O)[C@H]32)[C@@H](C)[C@@H]1O.Cl` [Compound 12, (3aR,4R,5R,7S,8S,9R,9aS,12R)-8-hydroxy-4,7,9,12-tetramethyl-3-oxo-7-vinyldecahydro-4,9a-propanocyclopenta[8]annulen-5-yl 2-((4-(aminomethyl)-1-hydroxy-1,3-dihydrobenzo[c][1,2]oxaborol-6-yl)oxy)acetate Hydrochloride], the MIC in assay [1] (setting [4]) and in assay [2] (setting [5]) was less than 0.25 mg/L throughout.
Turning to `C=C[C@]1(C)C[C@@H](OC(=O)COc2ccc3c(c2OC)B(O)OC3)[C@]2(C)[C@H](C)CC[C@]3(CCC(=O)[C@H]32)[C@@H](C)[C@@H]1O` [Compound 14, (3aR,4R,5R,7S,8S,9R,9aS,12R)-8-hydroxy-4,7,9,12-tetramethyl-3-oxo-7-vinyldecahydro-4,9a-propanocyclopenta[8]annulen-5-yl2-((1-hydroxy-7-methoxy-1,3-dihydrobenzo[c][1,2]oxaborol-6-yl)oxy)acetate], the minimum inhibitory concentration (MIC) in assay [1] is less than 0.25 mg/L; in assay [2] (setting [3]) it was 0.5 to 2 mg/L (≈ 0.925 to 3.7 µM).
In the case of `C=C[C@]1(C)C[C@@H](OC(=O)COc2cc3c(cc2OC)COB3O)[C@]2(C)[C@H](C)CC[C@]3(CCC(=O)[C@H]32)[C@@H](C)[C@@H]1O` [Compound 15, (3aR,4R,5R,7S,8S,9R,9aS,12R)-8-hydroxy-4,7,9,12-tetramethyl-3-oxo-7-vinyldecahydro-4,9a-propanocyclopenta[8]annulen-5-yl 2-((1-hydroxy-5-methoxy-1,3-dihydrobenzo[c][1,2]oxaborol-6-yl)oxy)acetate], the minimal inhibitory concentration (MIC) in assay [1] (setting [4]) and in assay [2] (setting [5]) was less than 0.25 mg/L in each case.
In the case of `C=C[C@]1(C)C[C@@H](OC(=O)COc2ccc3c(c2C#N)B(O)OC3)[C@]2(C)[C@H](C)CC[C@]3(CCC(=O)[C@H]32)[C@@H](C)[C@@H]1O` [Compound 16, (3aR,4R,5R,7S,8S,9R,9aS,12R)-8-hydroxy-4,7,9,12-tetramethyl-3-oxo-7-vinyldecahydro-4,9a-propanocyclopenta[8]annulen-5-yl 2-((7-cyano-1-hydroxy-1,3-dihydrobenzo[c][1,2]oxaborol-6-yl)oxy)acetate], the minimal inhibitory concentration (MIC) in assay [1] (setting [4]) is less than 0.25 mg/L.
In the case of `C=C[C@]1(C)C[C@@H](OC(=O)COc2cc(CN)c3c(c2)B(O)OC3)[C@]2(C)[C@H](C)CC[C@]3(C[C@H](O)C(=O)[C@H]32)[C@@H](C)[C@@H]1O` [Compound 42, (2S,3aR,4R,5R,7S,8S,9R,9aS,12R)-2,8-dihydroxy-4,7,9,12-tetramethyl-3-oxo-7-vinyldecahydro-4,9a-propanocyclopenta[8]annulen-5-yl 2-((4-(aminomethyl)-1-hydroxy-1,3-dihydrobenzo[c][1,2]oxaborol-6-yl)oxy)acetate], in assay [1] (setting [4]), the minimal inhibitory concentration (MIC) fell in the range of 4 to 32 mg/L (≈ 7.2 to 57.6 µM).

What is called MIC is the least concentration at which growth counts as inhibited.

(Values after patent US10919916B2, “Boron-containing small molecules” (Bill & Melinda Gates Foundation, priority 2016, dated 2021).)
